Our source for the MIC values is US8481502B2, “Antibacterial aminoglycoside analogs” (Achaogen, Inc., priority 2009, dated 2013).

In test [1] the test system is E. coli ATCC 25922 (AECO001). The experiment in a line: MIC assay, CLSI broth microdilution, AECO001. Format: cell-based. Particulars: Escherichia coli; AECO001 is ATCC25922; Mueller Hinton Broth, 35 C, 20 hours. The method, then:
(§1) Minimum inhibitory concentrations (MIC) were determined by reference Clinical and Laboratory Standards Institute (CLSI) broth microdilution methods per M7-A7 [2006]. Quality control ranges utilizing E. coli ATCC 25922, P. aeruginosa ATCC 27853 and S. aureus ATCC 29213, and interpretive criteria for comparator agents were as published in CLSI M100-S17 [2007]. Briefly, serial two-fold dilutions of the test compounds were prepared at 2× concentration in Mueller Hinton Broth. The compound dilutions were mixed in 96-well assay plates in a 1:1 ratio with bacterial inoculum. The inoculum was prepared by suspension of a colony from an agar plate that was prepared the previous day. Bacteria were suspended in sterile saline and added to each assay plate to obtain a final concentration of 5×10^5 CFU/mL. The plates were incubated at 35 C for 20 hours in ambient air.
On the technique in general: Dilution methods test growth across graded concentrations, often in twofold steps.

Test [2] concerns P. aeruginosa ATCC 27853 (APAE001). The experiment in a line: MIC assay, CLSI broth microdilution, APAE001. Format: cell-based. Particulars: Pseudomonas aeruginosa; APAE001 is ATCC27853; Mueller Hinton Broth, 35 C, 20 hours. Here is the method: as §1

Each structure is given as a SMILES string. ≈ marks a conversion by molar mass, not a printed value. Some results are limits rather than exact numbers.

With `NC[C@@H](O)[C@H](O)C(=O)N[C@@H]1C[C@H](N)[C@@H](O[C@H]2O[C@H](CN)[C@@H](O)C[C@H]2N)[C@H](O[C@@H]2O[C@H](CO)[C@@H](O[C@H]3O[C@@H](CN)[C@@H](O)[C@H](O)[C@H]3N)[C@H]2O)[C@H]1O` [1/11], the MIC (commonly the lowest concentration that inhibits growth of the organism) in test [1] is 1 to 16 µg/mL (≈ 1.4 to 22.4 µM); in test [2], ≤ 1 µg/mL.
Consider `NC[C@@H]1O[C@H](O[C@H]2[C@@H](O)[C@H](O[C@@H]3[C@@H](O)[C@H](NC(=O)[C@@H](O)[C@@H](O)CN)C[C@H](N)[C@H]3O[C@H]3O[C@H](CN)[C@@H](O)C[C@H]3N)O[C@@H]2CO)[C@H](N)[C@@H](O)[C@@H]1O` [2/3], for which the minimum inhibitory concentration (MIC) in test [1] was 1 to 16 µg/mL (≈ 1.4 to 22.4 µM); in test [2], ≤ 1 µg/mL.
For `NC[C@@H](F)[C@H](O)C(=O)N[C@@H]1C[C@H](N)[C@@H](O[C@H]2O[C@H](CN)[C@@H](O)C[C@H]2N)[C@H](O[C@@H]2O[C@H](CO)[C@@H](O[C@H]3O[C@@H](CN)[C@@H](O)[C@H](O)[C@H]3N)[C@H]2O)[C@H]1O` [3/3], the MIC in test [1] and in test [2] was ≤ 1 µg/mL in each case.
With `NC[C@@H]1O[C@H](O[C@H]2[C@@H](O)[C@H](O[C@@H]3[C@@H](O)[C@H](NC(=O)[C@@H](O)C(F)(F)CN)C[C@H](N)[C@H]3O[C@H]3O[C@H](CN)[C@@H](O)C[C@H]3N)O[C@@H]2CO)[C@H](N)[C@@H](O)[C@@H]1O` [4/3], the MIC in test [1] is 1 to 16 µg/mL (≈ 1.36 to 21.7 µM); in test [2], ≤ 1 µg/mL.
`NC[C@@H]1C[C@@H](O)[C@@H](N)[C@@H](O[C@H]2[C@H](O[C@@H]3O[C@H](CO)[C@@H](O[C@H]4O[C@@H](CN)[C@@H](O)[C@H](O)[C@H]4N)[C@H]3O)[C@@H](O)[C@H](NC(=O)[C@@H](O)[C@H](O)CN)C[C@@H]2N)O1` [5/12]: the results for the MIC in test [1] and in test [2] were 1 to 16 µg/mL (≈ 1.4 to 22.4 µM) and ≤ 1 µg/mL, respectively.
As for `NC[C@@H]1C[C@@H](O)[C@@H](N)[C@@H](O[C@H]2[C@H](O[C@@H]3O[C@H](CO)[C@@H](O[C@H]4O[C@@H](CN)[C@@H](O)[C@H](O)[C@H]4N)[C@H]3O)[C@@H](O)[C@H](NC(=O)[C@@H](O)[C@@H](O)CN)C[C@@H]2N)O1` [6/3], the MIC was 1 to 16 µg/mL (≈ 1.4 to 22.4 µM) in test [1] and ≤ 1 µg/mL in test [2].
In the case of `NC[C@@H]1C[C@@H](O)[C@@H](N)[C@@H](O[C@H]2[C@H](O[C@@H]3O[C@H](CO)[C@@H](O[C@H]4O[C@@H](CN)[C@@H](O)[C@H](O)[C@H]4N)[C@H]3O)[C@@H](O)[C@H](NC(=O)[C@@H](O)[C@H](F)CN)C[C@@H]2N)O1` [7/3], the MIC is 1 to 16 µg/mL (≈ 1.39 to 22.3 µM) in test [1] and ≤ 1 µg/mL in test [2].
In the case of `NC[C@@H]1C[C@@H](O)[C@@H](N)[C@@H](O[C@H]2[C@H](O[C@@H]3O[C@H](CO)[C@@H](O[C@H]4O[C@@H](CN)[C@@H](O)[C@H](O)[C@H]4N)[C@H]3O)[C@@H](O)[C@H](NC(=O)[C@@H](O)C(F)(F)CN)C[C@@H]2N)O1` [8/3], the MIC in test [1] was 1 to 16 µg/mL (≈ 1.36 to 21.7 µM); in test [2], ≤ 1 µg/mL.
